Two substances from patent publication US20250127896A1, “CHIMERIC TIM4 RECEPTORS AND USES THEREOF” (CERO THERAPEUTICS HOLDINGS, INC., priority 2021, published 2025) can be followed below.

The subject of this assay is phosphatidylserine (PS). Kind of assay: Single induction plate assay: IFN-γ by CER T cells on plate-bound phosphatidylserine (ELISA). To be noted: for IFN-γ production in response to phosphatidylserine: plate-bound PS; for IFNγ production by donor in response to increasing doses of plate-bound phosphatidylserine: three donors (31, 32, 38). Type of assay: cell-based. From the text:
FIGS. 19A-19C: CER T cells are activated and produce IFN-γ in response to phosphatidylserine engagement in a cell-free in vitro system. FIG. 19A: IFN-γ production in response phosphatidylserine (PS). IFN-γ production was induced in CER-1236 and CER-1234 T cells stimulated with PS (FIG. 19A), but not with phosphatidylethanolamine (PE) (FIG. 19B). […] FIG. 19C: CER1236 T cells are capable of recursive stimulation in vitro. Recursive IFN-γ induction with 3 serial stimulations at the indicated time points following a 24-hour rest after the first stimulation.
FIG. 33A-33C: CER T cells are activated and produce IFN-γ in response to phosphatidylserine engagement in a cell-free in vitro system. FIG. 33A: IFN-γ production in response phosphatidylserine (PS). IFN-γ production was induced in CER-1236 and CER-1234 T cells stimulated with PS (FIG. 33A), but not with phosphatidylethanolamine (PE) (FIG. 33B). […] FIG. 33C: CER1236 T cells are capable of recursive stimulation in vitro. Recursive IFN-γ induction with 3 serial stimulations at the indicated time points following a 24-hour rest after the first stimulation.
FIG. 44 are graphs showing IFNγ production in CER1234 T cells (left) or CER1236 T cells (right) from three donors in response to titrating doses of plate-bound phosphatidylserine.
FIG. 45 are graphs showing IFNγ production in CER1234 T cells or CER1236 T cells by donor in response to increasing doses of plate-bound phosphatidylserine.
FIG. 46 are graphs showing IFNγ production in CER1234 T cells or CER1236 T cells by donor in response to increasing doses of plate-bound phosphatidylserine at day 14 post-thaw.
FIG. 47 are graphs showing T cell expansion (left), IFNγ production (center), and cell viability (right) in CER1236 T cells in response to increasing doses of plate-bound phosphatidylserine.
FIG. 48 are graphs showing T cell expansion (left), IFNγ production (center), and cell viability (right) in CER1234 T cells in response to increasing doses of plate-bound phosphatidylserine.
CER T-cell activation was assessed by measuring induction of IFN-gamma by plate- and cell-based assays. Single induction plate assay: varying concentrations of phosphatidylserine (PS) or phosphatidylethanolamine (PE), a control membrane phospholipid not recognized by wild type TIM-4 (wtTIM-4), were coated onto high-binding tissue culture plates. CER T cells were added and IFN-γ levels were measured 24 hours after ligand exposure by ELISA. EC50 concentrations were determined by nonlinear regression (agonist vs. response-variable slope (4 parameters)). Induction by recursive stimulation plate assay: CER T cells were added to phosphatidylserine coated plates (2.5-20 μg/mL PS coating). Five days later, CER T cells were transferred to uncoated plates with fresh T cell optimizer media for 24 hours. Then, CER T cells were transferred again to a fresh PS coated plate. Supernatant was collected to assess IFN-γ induction by ELISA at various timepoints during re-stimulation (24, 72, and 120 hours). Cell-based assay: cytokine induction was assessed by multiparametric ELISA using conditioned supernatants harvested after 120 hours from the cytotoxicity assay described below.
T cells obtained from three different donors were transduced with CER1234 or CER1236 and incubated on titrating doses of plate-bound phosphatidylserine.
24 hour IFNγ stimulation by plate-bound phosphatidylserine aligns with day 5 post-activation expansion for CER1236 T cells. […] 24 hour IFNγ stimulation by plate-bound phosphatidylserine aligns with day 5 post-activation expansion for CER1234 T cells.
(In general: ELISA stands for enzyme-linked immunosorbent assay.)

Setting [1] is: Donor 38, 24 hours after ligand exposure.
Where [2] appears, read: Donor 41, 24 hours after ligand exposure.

“Also recorded” adds a separate entry of the source.

For “CER-1234: chimeric Tim4 receptor: Tim4 binding domain-CD28tm-CD28-TLR2 TIR-CD3z, SEQ ID NO:18; tested as transduced T cells”, the “IFN-γ production in response to phosphatidylserine” value is on record as “specifically produce IFN-γ in a dose-dependent manner; also recorded: produced concentration-dependent IFN-γ responses”; the “IFNγ production by donor in response to increasing doses of plate-bound phosphatidylserine” value is “shows lower activation for donors 32 and 38”. Further, the “PS EC50 (IFN-γ production)” value under setting [1] was determined as 3.52 µg/mL. Besides, the “PS EC50 (IFN-γ production)” value under setting [2] worked out at 1.88 µg/mL.

With “CER-1236: chimeric Tim4 receptor: Tim4 binding domain-CD28tm-CD28-CD3z-TLR2 TIR, SEQ ID NO:19; tested as transduced T cells”, the “IFN-γ production in response to phosphatidylserine” value was “specifically produce IFN-γ in a dose-dependent manner; also recorded: produced concentration-dependent IFN-γ responses” and the “IFNγ production by donor in response to increasing doses of plate-bound phosphatidylserine” value is on record as “shows strong activation”. Moreover, under setting [1], the “PS EC50 (IFN-γ production)” value is 4.74 µg/mL. Further, the “PS EC50 (IFN-γ production)” value under setting [2] is 3.16 µg/mL. Moreover, the “IFNγ production by donor on plate-bound phosphatidylserine at day 14 post-thaw” value (day 14 post-thaw) is recorded as “produces more IFNγ across all donors compared to CER1234 T cells”.
